Test results from patent US20260124309A1, “STAT6 DEGRADERS AND USES THEREOF” (Kymera Therapeutics, Inc., priority 2023, published 2026).

Legend:
[1] = biological target: T1, biotinylated truncated STAT6 (123-632)-avi (Homo sapiens, UniProt P42226); assay: STAT6 HTRF binding assay; conditions: HTRF binding, 0.15 nM biotinylated truncated STAT6 (123-632)-avi, 20 nM fluorescein-labeled probe
T1 construct: biotinylated truncated STAT6 (123-632)-avi purified from E. coli; made in house; host or cells: E. coli
T1 sequence (P42226 123-632 limits assumed): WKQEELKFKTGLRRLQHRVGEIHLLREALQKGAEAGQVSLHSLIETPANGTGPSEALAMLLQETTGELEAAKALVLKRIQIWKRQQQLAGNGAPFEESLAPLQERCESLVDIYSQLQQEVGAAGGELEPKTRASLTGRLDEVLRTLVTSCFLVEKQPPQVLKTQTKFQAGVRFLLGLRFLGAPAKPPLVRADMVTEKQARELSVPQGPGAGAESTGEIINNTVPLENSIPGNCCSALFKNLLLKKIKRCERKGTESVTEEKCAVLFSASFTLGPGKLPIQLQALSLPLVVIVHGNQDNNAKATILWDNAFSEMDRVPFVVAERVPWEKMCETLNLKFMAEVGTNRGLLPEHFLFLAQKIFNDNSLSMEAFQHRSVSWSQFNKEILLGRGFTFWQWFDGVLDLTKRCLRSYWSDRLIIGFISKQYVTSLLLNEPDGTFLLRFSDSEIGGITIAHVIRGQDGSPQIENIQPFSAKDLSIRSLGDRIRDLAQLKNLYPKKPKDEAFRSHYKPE
Method: HTRF binding assays were performed using 0.15 nM biotinylated truncated STAT6 (123-632)-avi purified from E. coli, 1× Streptavidin-terbium (CisBio) prepared by mixing SA-Tb in PPI detection buffer (CisBio), 20 nM proprietary fluorescein-labeled probe, and test compounds in assay buffer consisting of 50 mM HEPES-Na pH 7.5, 100 mM NaCl, 1 mM EDTA, 2 mM DTT, 0.1% Tween-20 with a final volume of 20 uL. Compound stocks were dissolved at 10 mM in 100% DMSO and 11 point titration with 3 fold serial dilution was performed in white, opaque 384 well microplates. Reaction plates were incubated at room temperature for 30 minutes. Plates were centrifuged at low rpm for 5 mins, and the ratio of fluorescence intensities were measured at emission wavelengths for fluorescein acceptor (520 nm) and terbium donor (495 nm) on Envision Plate reader. % Inhibition was calculated from the 520/495 ratio generated by using proprietary positive control compound for 100% inhibition and DMSO only reactions for 0% inhibition. Data was processed and dose response curves were generated using GraphPad Prism to determine the concentration required for inhibiting 50% of the HTRF signal (IC50).
The letter codes for IC50 (μM) include: A (<0.1 μM); B (0.1-1 μM); C (>1-10 μM); D (>10-100 μM); E (>100 μM); and F (not tested).

STAT6-HiBiT = biological target: T2, STAT6-HiBiT (Homo sapiens, UniProt P42226); assay: STAT6 HiBiT degradation in A549 (STAT6-HiBiT) cells; format: cell-based; conditions: 24 h
T2 construct: Degradation of STAT6 in endogenously tagged STAT6-HiBiT A549 cells; endogenous in cells; host or cells: A549 (STAT6-HiBiT) knock-in cells
T2 sequence (P42226 1-847): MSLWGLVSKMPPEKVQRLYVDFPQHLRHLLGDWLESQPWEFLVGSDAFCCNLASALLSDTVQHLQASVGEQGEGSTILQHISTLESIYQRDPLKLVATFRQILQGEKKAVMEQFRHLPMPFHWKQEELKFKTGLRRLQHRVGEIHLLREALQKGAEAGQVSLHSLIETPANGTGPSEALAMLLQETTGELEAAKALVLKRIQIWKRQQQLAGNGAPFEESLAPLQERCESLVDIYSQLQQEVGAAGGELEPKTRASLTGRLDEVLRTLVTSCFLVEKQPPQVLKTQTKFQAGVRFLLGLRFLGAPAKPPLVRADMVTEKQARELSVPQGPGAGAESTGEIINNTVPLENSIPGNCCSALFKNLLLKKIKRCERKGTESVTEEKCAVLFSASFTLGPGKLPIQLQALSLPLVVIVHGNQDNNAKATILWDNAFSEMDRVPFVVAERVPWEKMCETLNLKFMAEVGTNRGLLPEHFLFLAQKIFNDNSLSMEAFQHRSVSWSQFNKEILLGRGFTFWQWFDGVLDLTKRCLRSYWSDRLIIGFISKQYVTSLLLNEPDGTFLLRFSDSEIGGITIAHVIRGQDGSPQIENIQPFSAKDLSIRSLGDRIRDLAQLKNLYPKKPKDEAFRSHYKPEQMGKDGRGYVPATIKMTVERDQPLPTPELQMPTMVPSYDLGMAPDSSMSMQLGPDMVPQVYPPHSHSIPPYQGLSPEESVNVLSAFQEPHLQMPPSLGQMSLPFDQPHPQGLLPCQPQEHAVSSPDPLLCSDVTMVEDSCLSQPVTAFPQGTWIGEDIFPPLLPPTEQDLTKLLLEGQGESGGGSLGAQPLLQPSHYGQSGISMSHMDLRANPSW
Method: Degradation of STAT6 in endogenously tagged STAT6-HiBiT A549 cells was quantitatively measured using the Nano-Glo HiBiT Lytic Detection System (Promega, 3040). A549 (STAT6-HiBiT) cells were seeded in 384-well plates with a density of 1.25k cells per well in 20 μl fresh media. Compounds were then added to the assay plates using the Apricot S3 with a final top concentration of up to 10 uM in a 4-fold dilution series with total of 10 doses. The assay plates were then incubated for 24 hours at 37° C. under 5% CO2. At the assay endpoint, 20 μL of Nano-Glo HiBiT Lytic Reagent was added to each well and agitated on a plate shaker at 300 rpm for 10 minutes at room temperature. Luminescence was read on PHERAStar FSX Instrument (Is integration time). The data was analyzed by GraphPad Prism and the dose dependent STAT6 degradation was fit using the four-parameter inhibitor vs. response nonlinear regression.
The letter codes for DC50 (nM) include: A (<1 nM): B (1-10 nM); C (>10-100 nM); D (>100-1000 nM); E (>1000 nM); and F (not tested). The letter codes for Dmax (%) include: A (>90%); B (>70-90%); C (>50-70%); D (<50%); and E (not tested).

STAT6 = biological target: T3, STAT6 (Homo sapiens, UniProt P42226); assay: STAT6 MSD degradation in A549 cells; format: cell-based; conditions: 24 h
T3 construct: endogenous in cells; host or cells: A549
T3 sequence (P42226 1-847): T2 sequence (P42226 1-847)
Method: Degradation of STAT6 in cells was quantitatively measured using Meso Scale Discovery (MSD) technology. A549 cells were seeded in 96-well plates with a density of 1.5×10e4 to 5×10e5 cells per well in 100 μl fresh media. Compounds were then added to the assay plates with a final top concentration of up to 10 uM in a 1:3 dilution series with total of 9 doses. The assay plates were then incubated for 4 to 24 hours at 37° C. under 5% CO2. The assay plates were then centrifuged for 5 minutes and the cell pellets were treated with 100 μl/well RIPA lysis buffer (Boston Bioproducts, BP-115D) with protease and phosphatase inhibitors (Roche, 05892791001 and 04906837001). To prepare the MSD assay plates (MSD, L15XA), the plates were coated with the capture antibody (Abnova, H00006778) in PBS, at 40 μl/well. The plates were then incubated overnight at 4° C., washed 1 time with 150 μl/well TBST buffer (Cell Signaling Technology, #9997S) and blocked with 150 μl/well blocking buffer (MSD, R93BA-4). Cell lysates were then added to MSD assay plates and the plates were incubated at room temperature for 1 hour. The plates were then washed 3 times with 150 μl/well TBST buffer and 25 μl/well primary detection antibody (Cell Signaling Technology, #5397S). The assay plates were then incubated at room temperature for 1 hour, washed 3 times with 150 μl/well TBST buffer, and 25 μl/well secondary detection antibody, SULFO-TAG anti-rabbit antibody (MSD, R32AB-1) were added. The assay plates were then incubated at room temperature for 1 hour, washed 3 times with 150 μl/well TBST buffer, and 150 μl/well MSD reading buffer (MSD, R92TC-2) were added. The plates were then analyzed by an MSD reader. The data was analyzed by GraphPad Prism and the dose dependent STAT6 degradation was fit using the four-parameter inhibitor vs. response nonlinear regression.
The letter codes for DC50 (nM) include: A (<1 nM); B (1-10 nM); C (>10-100 nM); D (>100-1000 nM); E (>1000 nM); and F (not tested). The letter codes for Dmax (oo) include: A (>90%); B (>70-90%); C (>50-70%); D ([…]); and F (not tested).

Q: What does the source list for `CN(C)C(=O)c1cc2c(-c3ccc(C4CCN(c5ccc(C6CCC(=O)NC6=O)cc5F)CC4)cc3)cc(C3=CCCN(C(=O)CCn4ccnn4)C3)c(F)c2[nH]1` (centres unmarked) [Example I-1015, 6-(1-(3-(1H-1,2,3-triazol-1-yl)propanoyl)-1,2,5,6-tetrahydropyridin-3-yl)-4-(4-(1-(4-(2,6-dioxopiperidin-3-yl)-2-fluorophenyl)piperidin-4-yl)phenyl)-7-fluoro-N,N-dimethyl-1H-indole-2-carboxamide]?
A: IC50 [1]: < 100 nM; DC50 (STAT6-HiBiT): < 1 nM; Dmax (STAT6-HiBiT): > 90%; DC50 (STAT6): < 1 nM; Dmax (STAT6): 70 to 90%
